Patent US20140241995A1, “MICROPATCH FOR ASSESSING CHEMICAL CONTACT ALLERGY” (priority 2011, published 2014)
Several values for one entry are separate records, joined by “and”; a condition that tells them apart may be missing. Equal entries are not always repeated. Where two headings read alike, the source gives them in different places.

Tests used:
subjects = details: cited from earlier work
patch tested subjects = details: PPD patch testing, cited from earlier work
[1] = tested on: volunteers with a positive history of contact allergy to p-phenylenediamine; assay: Occluded patch test with p-phenylenediamine in petrolatum at treatment diameters of 8, 4, 3 and 2 mm; assay type: in vivo, human; details: 0.1% or 1.0% in petrolatum, under occlusion, diameters 8, 4, 3, 2 mm; reactions at 48 h, 72 h and/or 96 h
Protocol: 15 volunteers with a positive history of contact allergy to p-phenylenediamine were recruited. Contact allergy to p-phenylenediamine was determined based on their response to a standard 48 h, 8 mm diagnostic patch test with 1% p-phenylenediamine in petrolatum. According to their known sensitivity, these volunteers were tested with either 0.1% or 1.0% p-phenylenediamine in petrolatum, under occlusion, with treatment diameters of 8, 4, 3, and 2 mm. Reactions at 48 h, 72 h and/or 96 h were recorded using the Internationally accepted dermatology grading scale of N, ?+, +, ++. The responses were transposed into numerical values (0-3 respectively) and summated. The summated scores are presented below.

Row | Structure (SMILES) | % sensitised (subjects; Row 1: diameter 3 cm, area 7.1 cm^2, total 1000 μg, 142 μg/cm^2) | % sensitised (subjects; Row 2: diameter 3 cm, area 7.1 cm^2, total 500 μg, 71 μg/cm^2) | % sensitised (subjects; Row 3: diameter 3 cm, area 7.1 cm^2, total 250 μg, 35.4 μg/cm^2) | % sensitised (subjects; Row 4: diameter 3 cm, area 7.1 cm^2, total 125 μg, 17.1 μg/cm^2) | % sensitised (subjects; Row 5: diameter 3 cm, area 7.1 cm^2, total 62.5 μg, 8.8 μg/cm^2) | % sensitised (subjects; Row 6: diameter 1.5 cm, area 1.8 cm^2, total 62.5 μg, 35.4 μg/cm^2) | % sensitised (subjects; Row 7: diameter 2.1 cm, area 3.5 cm^2, total 58 μg, 16.4 μg/cm^2) | % sensitised (subjects; Row 8: diameter 3 cm, area 7.1 cm^2, total 116 μg, 16.4 μg/cm^2) | % sensitised (subjects; Row 9: diameter 4.25 cm, area 14.2 cm^2, total 232 μg, 16.4 μg/cm^2) | % sensitised (subjects; Row 10: l cm paper, area 0.8 cm^2, total 30 μg, 38 μg/cm^2) | % sensitised (subjects; Row 11: 3 mm paper, area 0.08 cm^2, total 3 μg, 38 μg/cm^2) | rate of sensitization caused by the test (patch tested subjects; Dawe et al. 2004) | incidence of active sensitization (patch tested subjects; Devos and van der Valk 2001) | impact of reduced patch test diameter on the reaction intensity observed [1]
1 | O=[N+]([O-])c1ccc(Cl)c([N+](=O)[O-])c1 [DNCB, 2,4-dinitrochlorobenzene] | 100% | 100% | 83% | 63% | 8% | 85% and 86% | 55% | 50% | 66% | 93% | 26% | – | – | –
2 | Nc1ccc(N)cc1 [PPD, para-phenylenediamine] | – | – | – | – | – | – | – | – | – | – | – | less than 0.2% | 1.5% | no detectable impact
